From the supplement of paper PMC6411743

Compound: Nc1ncnc2c1ncn2[C@@H]1O[C@H](COP(=O)(O)OP(=O)(O)OP(=O)(O)O)[C@@H](O)[C@H]1O [adenosine triphosphate]
Experiment: pEC50 of ATP-induced change in protein thermal stability (2D-TPP)
How it was run: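 Crude Jurkat lysate was exposed to five concentrations, vehicle among them, for 10 min at room temperature, then heated for 3 min at 12 temperatures between 42 and 63.9 °C and treated with NP40 and benzonase for 60 min at 4 °C. Soluble protein remaining after ultracentrifugation was measured by TMT LC-MS/MS, and fold changes relative to vehicle at each temperature were median-normalised. pEC50 values come from dose-response fits made per replicate across adjacent temperature pairs, with hits called under permutation-based false discovery rate control. Three independent experiments were run.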
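Note: lysate dosed with Na-ATP at 0 0.005 0.05 0.5 and 2 mM.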

Sequence of UniProt Q92522 (Q92522 whole entry): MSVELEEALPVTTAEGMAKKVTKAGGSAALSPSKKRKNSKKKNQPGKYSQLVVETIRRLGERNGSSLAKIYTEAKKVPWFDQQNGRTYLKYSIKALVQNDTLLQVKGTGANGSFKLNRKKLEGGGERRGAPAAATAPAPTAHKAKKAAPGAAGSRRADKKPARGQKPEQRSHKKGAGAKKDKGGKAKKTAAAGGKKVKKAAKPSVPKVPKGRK
Sequence of UniProt Q5JTZ9 (Q5JTZ9 whole entry): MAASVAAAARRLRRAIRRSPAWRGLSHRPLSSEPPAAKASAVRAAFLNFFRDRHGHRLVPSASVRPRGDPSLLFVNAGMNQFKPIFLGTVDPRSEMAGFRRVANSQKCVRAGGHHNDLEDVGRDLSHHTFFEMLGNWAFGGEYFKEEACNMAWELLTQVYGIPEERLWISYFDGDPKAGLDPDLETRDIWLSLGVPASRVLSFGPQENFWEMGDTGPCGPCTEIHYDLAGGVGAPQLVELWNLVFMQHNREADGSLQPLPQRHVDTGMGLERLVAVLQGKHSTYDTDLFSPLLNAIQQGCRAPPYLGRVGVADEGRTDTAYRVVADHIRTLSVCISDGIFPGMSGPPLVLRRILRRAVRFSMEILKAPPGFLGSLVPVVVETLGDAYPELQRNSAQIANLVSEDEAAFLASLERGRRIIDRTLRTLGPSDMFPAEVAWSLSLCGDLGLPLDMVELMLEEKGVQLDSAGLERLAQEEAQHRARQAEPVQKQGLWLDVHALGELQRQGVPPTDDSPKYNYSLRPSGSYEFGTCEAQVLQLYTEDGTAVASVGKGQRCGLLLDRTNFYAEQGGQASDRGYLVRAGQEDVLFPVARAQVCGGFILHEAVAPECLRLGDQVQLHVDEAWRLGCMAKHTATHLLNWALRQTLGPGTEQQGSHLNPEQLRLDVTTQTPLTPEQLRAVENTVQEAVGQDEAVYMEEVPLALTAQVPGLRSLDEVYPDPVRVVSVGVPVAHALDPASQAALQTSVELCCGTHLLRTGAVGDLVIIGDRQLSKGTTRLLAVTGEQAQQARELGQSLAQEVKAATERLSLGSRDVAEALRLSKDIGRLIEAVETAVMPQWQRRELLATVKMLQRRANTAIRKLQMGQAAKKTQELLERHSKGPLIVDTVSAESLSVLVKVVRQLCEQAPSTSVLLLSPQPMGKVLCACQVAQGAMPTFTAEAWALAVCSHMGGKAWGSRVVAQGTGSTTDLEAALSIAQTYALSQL
Sequence of UniProt Q9BUP0 (Q9BUP0 whole entry): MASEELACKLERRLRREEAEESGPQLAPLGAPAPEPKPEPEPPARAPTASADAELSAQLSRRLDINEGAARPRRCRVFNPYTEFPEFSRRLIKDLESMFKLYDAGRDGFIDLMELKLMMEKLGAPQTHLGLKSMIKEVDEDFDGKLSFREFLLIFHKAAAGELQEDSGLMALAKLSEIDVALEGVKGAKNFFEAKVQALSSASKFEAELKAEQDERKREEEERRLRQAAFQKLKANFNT
Sequence of UniProt Q15738 (Q15738 whole entry): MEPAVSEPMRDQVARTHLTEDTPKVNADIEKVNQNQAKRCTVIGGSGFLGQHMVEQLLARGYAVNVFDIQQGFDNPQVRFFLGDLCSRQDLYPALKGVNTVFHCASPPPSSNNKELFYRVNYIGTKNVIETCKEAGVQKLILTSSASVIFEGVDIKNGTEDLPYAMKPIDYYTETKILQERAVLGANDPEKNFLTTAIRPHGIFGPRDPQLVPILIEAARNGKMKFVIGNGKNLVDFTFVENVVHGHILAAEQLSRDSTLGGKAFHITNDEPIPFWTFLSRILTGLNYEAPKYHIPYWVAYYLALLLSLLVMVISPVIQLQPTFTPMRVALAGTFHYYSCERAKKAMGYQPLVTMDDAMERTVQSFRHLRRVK
Sequence of UniProt O43681 (O43681 whole entry): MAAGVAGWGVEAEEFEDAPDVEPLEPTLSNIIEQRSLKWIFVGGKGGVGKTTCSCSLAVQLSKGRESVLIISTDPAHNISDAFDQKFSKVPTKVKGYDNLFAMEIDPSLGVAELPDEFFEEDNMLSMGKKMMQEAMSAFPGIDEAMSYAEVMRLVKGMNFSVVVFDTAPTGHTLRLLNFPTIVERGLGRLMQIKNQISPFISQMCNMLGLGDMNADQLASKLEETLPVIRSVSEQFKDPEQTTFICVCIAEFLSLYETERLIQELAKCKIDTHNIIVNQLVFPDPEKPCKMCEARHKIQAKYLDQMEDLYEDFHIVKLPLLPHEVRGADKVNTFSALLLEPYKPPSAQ
Sequence of UniProt Q9BRT8 (Q9BRT8 whole entry): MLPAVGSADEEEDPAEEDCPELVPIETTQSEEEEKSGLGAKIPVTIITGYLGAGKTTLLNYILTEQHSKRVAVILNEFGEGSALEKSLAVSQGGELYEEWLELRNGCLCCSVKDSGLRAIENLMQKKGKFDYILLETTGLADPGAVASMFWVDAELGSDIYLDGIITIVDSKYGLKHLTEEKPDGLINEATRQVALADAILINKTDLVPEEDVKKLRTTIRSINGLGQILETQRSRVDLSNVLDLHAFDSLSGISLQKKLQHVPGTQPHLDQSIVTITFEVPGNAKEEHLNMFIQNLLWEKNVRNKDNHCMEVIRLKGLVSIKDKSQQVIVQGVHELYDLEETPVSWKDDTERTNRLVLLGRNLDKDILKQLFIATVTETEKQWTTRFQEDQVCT
Sequence of UniProt Q9HCE1 (Q9HCE1 whole entry): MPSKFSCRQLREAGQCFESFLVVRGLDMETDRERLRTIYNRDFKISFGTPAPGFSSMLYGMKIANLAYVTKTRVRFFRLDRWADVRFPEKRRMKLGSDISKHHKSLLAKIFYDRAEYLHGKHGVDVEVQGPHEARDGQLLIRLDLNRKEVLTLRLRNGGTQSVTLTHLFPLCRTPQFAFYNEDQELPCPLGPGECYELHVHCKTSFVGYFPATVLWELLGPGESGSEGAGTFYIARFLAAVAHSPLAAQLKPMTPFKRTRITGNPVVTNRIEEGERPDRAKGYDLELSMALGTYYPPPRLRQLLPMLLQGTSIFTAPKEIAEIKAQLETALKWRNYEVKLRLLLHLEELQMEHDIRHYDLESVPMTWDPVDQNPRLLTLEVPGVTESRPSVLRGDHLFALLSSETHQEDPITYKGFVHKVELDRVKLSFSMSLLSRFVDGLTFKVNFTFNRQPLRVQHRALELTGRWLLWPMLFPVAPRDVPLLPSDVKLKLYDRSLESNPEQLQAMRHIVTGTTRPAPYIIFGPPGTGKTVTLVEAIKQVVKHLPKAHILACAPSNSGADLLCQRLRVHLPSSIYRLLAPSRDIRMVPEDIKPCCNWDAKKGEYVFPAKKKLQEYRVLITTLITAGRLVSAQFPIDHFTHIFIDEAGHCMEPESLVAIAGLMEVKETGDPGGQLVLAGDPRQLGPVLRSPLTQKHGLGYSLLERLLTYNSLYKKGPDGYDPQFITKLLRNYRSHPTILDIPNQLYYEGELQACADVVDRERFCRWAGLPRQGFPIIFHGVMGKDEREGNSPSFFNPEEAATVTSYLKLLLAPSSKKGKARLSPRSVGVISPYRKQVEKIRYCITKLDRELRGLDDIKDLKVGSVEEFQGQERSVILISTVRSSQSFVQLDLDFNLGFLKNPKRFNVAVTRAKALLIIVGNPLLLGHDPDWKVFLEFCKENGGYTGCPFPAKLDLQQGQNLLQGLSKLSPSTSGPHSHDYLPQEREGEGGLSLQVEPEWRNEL
Sequence of UniProt Q9HCP0 (Q9HCP0 whole entry, looked up): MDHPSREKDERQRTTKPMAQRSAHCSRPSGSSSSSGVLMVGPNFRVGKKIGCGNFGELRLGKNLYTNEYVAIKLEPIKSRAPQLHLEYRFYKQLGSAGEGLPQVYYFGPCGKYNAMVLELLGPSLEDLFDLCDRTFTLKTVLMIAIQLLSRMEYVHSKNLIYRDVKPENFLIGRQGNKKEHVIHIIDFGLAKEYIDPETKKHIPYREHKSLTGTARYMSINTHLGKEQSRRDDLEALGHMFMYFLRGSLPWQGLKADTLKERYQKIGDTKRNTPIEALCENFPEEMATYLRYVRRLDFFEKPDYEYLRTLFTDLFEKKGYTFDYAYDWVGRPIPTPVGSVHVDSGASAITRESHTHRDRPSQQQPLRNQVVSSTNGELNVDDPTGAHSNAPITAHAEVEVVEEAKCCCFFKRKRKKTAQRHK
Sequence of UniProt Q07021 (Q07021 whole entry): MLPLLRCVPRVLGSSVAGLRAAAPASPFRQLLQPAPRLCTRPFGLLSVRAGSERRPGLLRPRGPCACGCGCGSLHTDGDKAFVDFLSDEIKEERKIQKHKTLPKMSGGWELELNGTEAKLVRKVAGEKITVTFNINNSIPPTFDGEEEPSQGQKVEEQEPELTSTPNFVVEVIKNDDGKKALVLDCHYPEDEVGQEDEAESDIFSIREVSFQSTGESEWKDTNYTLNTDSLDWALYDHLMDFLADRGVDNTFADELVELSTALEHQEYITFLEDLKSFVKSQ
Sequence of UniProt P62195 (P62195 whole entry): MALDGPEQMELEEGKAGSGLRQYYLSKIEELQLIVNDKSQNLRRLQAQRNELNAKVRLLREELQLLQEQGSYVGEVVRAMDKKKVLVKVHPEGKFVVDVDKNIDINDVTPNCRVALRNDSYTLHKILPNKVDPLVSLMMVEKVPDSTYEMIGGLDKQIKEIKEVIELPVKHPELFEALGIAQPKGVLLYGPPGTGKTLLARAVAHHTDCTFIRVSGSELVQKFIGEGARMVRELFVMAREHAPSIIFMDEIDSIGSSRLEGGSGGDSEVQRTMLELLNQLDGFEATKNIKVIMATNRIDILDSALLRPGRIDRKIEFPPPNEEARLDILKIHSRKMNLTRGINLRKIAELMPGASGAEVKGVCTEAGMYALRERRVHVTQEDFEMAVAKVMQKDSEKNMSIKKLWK
Sequence of UniProt P07737 (P07737 whole entry): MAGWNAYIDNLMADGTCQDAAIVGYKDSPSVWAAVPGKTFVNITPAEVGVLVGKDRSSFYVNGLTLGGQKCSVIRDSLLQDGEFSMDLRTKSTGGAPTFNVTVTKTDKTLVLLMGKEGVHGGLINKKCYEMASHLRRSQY
Sequence of UniProt Q9BRT6 (Q9BRT6 whole entry): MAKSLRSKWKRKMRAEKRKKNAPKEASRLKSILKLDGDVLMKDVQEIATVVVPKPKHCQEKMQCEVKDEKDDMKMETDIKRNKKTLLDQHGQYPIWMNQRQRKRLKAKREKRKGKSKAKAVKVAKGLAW

Target | pEC50
SMC3 (effect direction: stabilized) (UniProt Q9UQE7) | 3.41
MAGED2 (effect direction: destabilized) (UniProt Q9UNF1) | 3.7
RPL13 (effect direction: destabilized) (UniProt P26373) | > 5.3
TSR1 (effect direction: destabilized) (UniProt Q2NL82) | 3.51
EIF2B2 (effect direction: stabilized) (UniProt P49770) | 2.83
NT5C2 (effect direction: stabilized) (UniProt P49902) | 2.82
CAMKK2 (effect direction: stabilized) (UniProt Q96RR4) | 3.63
RIOK1 (effect direction: stabilized) (UniProt Q9BRS2) | 3.11
PUS1 (effect direction: stabilized) (UniProt Q9Y606) | 2.99
RNASEH2C (effect direction: stabilized) (UniProt Q8TDP1) | 2.76
RRP9 (effect direction: destabilized) (UniProt O43818) | 2.98
ETFA (effect direction: stabilized) (UniProt P13804) | < 2.7
PSMD8 (effect direction: stabilized) (UniProt P48556) | 4.12
EFHD2 (effect direction: destabilized) (UniProt Q96C19) | 3.08
MSI2 (effect direction: stabilized) (UniProt Q96DH6) | < 2.7
NCAPD2 (effect direction: stabilized) (UniProt Q15021) | 3.56
APRT (effect direction: destabilized) (UniProt P07741) | 4.41
MDH2 (effect direction: stabilized) (UniProt P40926) | 2.78
ARHGAP1 (effect direction: stabilized) (UniProt Q07960) | 3.14
UniProt O95319 (effect direction: stabilized) | < 2.7
UniProt P61513 (effect direction: destabilized) | 3.27
PGM1 (effect direction: destabilized) (UniProt P36871) | < 2.7

Target | pEC50
LLPH (effect direction: stabilized) (UniProt Q9BRT6) | < 2.7
RDH14 (effect direction: stabilized) (UniProt Q9HBH5) | 3.2
UniProt O14920 (effect direction: stabilized) | 3.5
PA2G4 (effect direction: destabilized) (UniProt Q9UQ80) | 3.17
SLC27A4 (effect direction: stabilized) (UniProt Q6P1M0) | 3.05
KATNA1 (effect direction: stabilized) (UniProt O75449) | 3.42
UniProt Q9NYV4 (effect direction: stabilized) | 2.75
RAD51 (effect direction: stabilized) (UniProt Q06609) | 3.65
ITPK1 (effect direction: stabilized) (UniProt Q13572) | 3.89
PIP4K2A (effect direction: stabilized) (UniProt P48426) | 2.72
PGD (effect direction: stabilized) (UniProt P52209) | < 2.7
GYS1 (effect direction: destabilized) (UniProt P13807) | 5.03
SHKBP1 (effect direction: stabilized) (UniProt Q8TBC3) | 2.83
UniProt Q8NI60 (effect direction: stabilized) | 3.73
UniProt P24928 (effect direction: destabilized) | 3.32
UniProt Q8N9R8 (effect direction: stabilized) | 3.01
PRKAG1 (effect direction: stabilized) (UniProt P54619) | 3.27
MOV10 (effect direction: destabilized) (UniProt Q9HCE1) | 3.24
PPP3CC (effect direction: destabilized) (UniProt P48454) | 2.92
PMVK (effect direction: stabilized) (UniProt Q15126) | 3.58
COPS5 (effect direction: stabilized) (UniProt Q92905) | < 2.7
MAPRE1 (effect direction: stabilized) (UniProt Q15691) | < 2.7

Target | pEC50
UniProt P62847 (effect direction: destabilized) | 4.16
EIF3A (effect direction: destabilized) (UniProt Q14152) | 4.48
BOP1 (effect direction: stabilized) (UniProt Q14137) | < 2.7
PRPF4B (effect direction: stabilized) (UniProt Q13523) | 3.18
PRKCH (effect direction: stabilized) (UniProt P24723) | 3.5
SMARCA5 (effect direction: stabilized) (UniProt O60264) | 4.03
CCNB2 (effect direction: stabilized) (UniProt O95067) | 4.13
RPL18 (effect direction: destabilized) (UniProt Q07020) | < 2.7
C1QBP (effect direction: stabilized) (UniProt Q07021) | < 2.7
PPA1 (effect direction: destabilized) (UniProt Q15181) | 2.85
PLCG1 (effect direction: stabilized) (UniProt P19174) | 2.94
FBL (effect direction: destabilized) (UniProt P22087) | 3.44
MOCS3 (effect direction: stabilized) (UniProt O95396) | 3.95
ASNA1 (effect direction: stabilized) (UniProt O43681) | 3.31
UniProt P62316 (effect direction: destabilized) | < 2.7
UniProt Q15257 (effect direction: stabilized) | < 2.7
POLG2 (effect direction: destabilized) (UniProt Q9UHN1) | 3.26
CBWD1 (effect direction: stabilized) (UniProt Q9BRT8) | 2.96
H1FX (effect direction: destabilized) (UniProt Q92522) | < 2.7
FAF1 (effect direction: stabilized) (UniProt Q9UNN5) | 2.79
RAPGEF1 (effect direction: destabilized) (UniProt Q13905) | 2.88

Second part, the target after the results:

pEC50 | Target
3.72 | UniProt Q9HCP0 (effect direction: stabilized)
4.06 | UniProt Q02750 (effect direction: stabilized)
3.29 | AARS2 (effect direction: stabilized) (UniProt Q5JTZ9)
3.39 | UniProt Q8WXA9 (effect direction: stabilized)
3.46 | UniProt Q9NQ88 (effect direction: stabilized)
< 2.7 | EIF5 (effect direction: stabilized) (UniProt P55010)
4.03 | PRKAR2A (effect direction: stabilized) (UniProt P13861)
4.05 | UniProt P62280 (effect direction: destabilized)
> 5.3 | FUCA1 (effect direction: destabilized) (UniProt P04066)
3.59 | UniProt Q14004 (effect direction: stabilized)
3.28 | GTPBP1 (effect direction: stabilized) (UniProt O00178)
3.22 | LUC7L2 (effect direction: stabilized) (UniProt Q9Y383)
2.99 | UniProt P62841 (effect direction: destabilized)
< 2.7 | UBE3A (effect direction: stabilized) (UniProt Q05086)
3.36 | UniProt Q5JUR7 (effect direction: stabilized)
2.87 | CTBS (effect direction: stabilized) (UniProt Q01459)
< 2.7 | PGP (effect direction: destabilized) (UniProt A6NDG6)
3.57 | PFN1 (effect direction: stabilized) (UniProt P07737)
3.08 | CTNNBL1 (effect direction: stabilized) (UniProt Q8WYA6)
4.18 | UniProt P62195 (effect direction: stabilized)
3.18 | EFHD1 (effect direction: destabilized) (UniProt Q9BUP0)
3.05 | CHERP (effect direction: stabilized) (UniProt Q8IWX8)
3.71 | UniProt Q9Y2H1 (effect direction: stabilized)
3.91 | UniProt Q05655 (effect direction: stabilized)
5 | MDH1 (effect direction: stabilized) (UniProt P40925)
3.22 | CDC40 (effect direction: destabilized) (UniProt O60508)
< 2.7 | NSDHL (effect direction: stabilized) (UniProt Q15738)
< 2.7 | UniProt O60610 (effect direction: stabilized)
